pIC50: −log10 of the molar value.
How the values were obtained:
[1] = tested on: steroidogenesis in H295R cells; type: cell-based, human; conditions: 48 h; for increased levels of progesterone and 17α-OH-progesterone compared with vehicle-treated controls: H295R; for effect on steroid hormone levels compared with vehicle-treated controls / increased levels of 17α-OH-progesterone compared with vehicle-treated controls: highest noncytotoxic exposure concentration
Description: (§1) All experiments were performed using cells in passages 5 to 10. First, the highest noncytotoxic concentration (<10% decrease in viability) was determined for each compound with MTT assays. Next, the levels of 13 steroid hormones were determined in the medium after exposure of the H295R cells to the highest noncytotoxic concentration using LC-MS/MS. These concentrations were tested in triplicate (n = 3) in 3 independent experiments (N = 3), and all 9 samples were measured in LC-MS/MS. […] These dilution series were tested in 3 independent experiments (N = 3), with triplicate exposures in each of these experiments (n = 3). Supernatants of the triplicate exposures per experiment were pooled after the 48 h of exposure and the 3 pooled samples were measured with LC-MS/MS. This was done to keep the number of LC-MS/MS measurements manageable.
The exposure medium was prepared by diluting stock solutions 1,000× in the cell culture medium to obtain a final concentration of 0.1% of the solvent. Exposure was started by replacing cell culture medium with the exposure medium. […] On a separate quality control plate, cells were exposed to 10 μM forskolin (Sigma-Aldrich) and 1 μM prochloraz (Sigma-Aldrich) to serve as positive control for increased and decreased steroid hormone secretion, respectively. Exposure was started by replacing the culture medium in the cell culture plates with the exposure medium.
(§2) After 48 h of exposure, the supernatant medium from each well was transferred to the wells of a clean 48-well plate, and that plate was stored at −80 °C for later steroid measurement. MTT assays were performed by adding 500 μl of 0.5 mg/ml MTT (3-(4,5-dimethylthiazol-2-yl)-2,5-diphenyltetrazolium bromide; Sigma-Aldrich) solution in medium to each well of the 24-well cell culture plate and incubating for 1 h at 37 °C with 5% CO2. After incubation, the MTT solution was discarded and 500 μl of DMSO was added to each well to lyse the cells and dissolve the formazan crystals. Plates were shaken at 700 rpm for 10 min and absorbance was measured at 560 nm wavelength.
Hormones were concentrated from supernatants by solid phase extraction using Bond Elut Plexa cartridges, 30 mg sorbent, 1.8 ml (Agilent Technologies, Santa Clara, CA, United States). The cartridges were conditioned with 1 ml of 0.5% formic acid in methanol, and subsequent addition of 1 ml of 0.5% formic acid in water. A mix of 100 μl of H295R medium sample in 1 ml of 2% formic acid in water and 50 μl of isotopically labeled internal standards mix (Table S1) was loaded on the cartridges. These were then washed with 1 ml of water followed by 1 ml of water–methanol mixture (70:30, v/v). Cartridges were dried by vacuum and the hormones were eluted with 700 μl of methanol into 96-well-deep well polypropylene plates. Eluates were evaporated to dryness during approximately 2 h in a refrigerated CentriVap vacuum concentrator and reconstituted in 150 μl of water–methanol mixture (1:1, v/v). Additionally, a serial 12-point dilution series of a mix of native steroid hormones was prepared to fit a calibration curve in order to quantify steroid concentrations.
The steroid hormones were separated prior to MS measurements on a Kinetex C18 LC Column (2.6 μm, 100 × 2.1 mm; Phenomenex, CA, United States) coupled to an Exion LC system (SCIEX, Framingham, MA, United States). The mobile phase consisted of 0.2 mM NH4F in water and pure methanol and was delivered at a flow rate of 0.6 ml/min in a gradient elution mode. The injection volume was 10 μl.
The LC-MS/MS raw data were processed using AB Sciex OS Analyst version 1.6.2 (SCIEX, Framingham, MA, United States) to calculate fold changes by dividing the measured hormone concentrations by the hormone concentrations in the vehicle controls. The fold changes were used to fit a concentration–response curve in GraphPad Prism using the same model as in the reporter gene assays, and the ECIR1.5 was estimated for each compound.

GH3.TRE cells = test: Resazurine cell viability assay in GH3.TRE cells
Description: Exposure medium was added to the cells immediately after seeding. […] Exposure conditions, resazurine assay, and luciferase measurements were similar as described for the VM7Luc4E2 cells.

H295R cells = test: MTT cell viability assay in H295R cells; type: cell-based, human; conditions: 48 h; for highest exposure concentration with <10% decrease in cell viability: H295R cells; for decrease in cell viability at highest exposure concentration: 25 μM
Description: as §1, with “For the H295R assay, the culturing and exposure of cells were performed according to OECD Test Guideline No. 456 ([OECD 2011]). All” for “All”
as §2, with “wavelength. Concentrations causing >10% decrease in cell viability were excluded from the hormone analysis, and test compounds were retested at a lower concentration.” for “wavelength.”

[2] = tested on: AR-Ecoscreen-GR-KO M1 cells; test: Resazurine cell viability assay in AR-Ecoscreen-GR-KO M1 cells; conditions: 24 h
Description: The cell culture medium was discarded and replaced with 100 μl of fresh assay medium. […] Exposure conditions (24 h; 37 °C; 5% CO2), resazurine assay, and luciferase measurements were similar to described for the VM7Luc4E2 cells.

VM7Luc4E2 cells = test: Resazurine cell viability assay in VM7Luc4E2 cells; type: cell-based, human; conditions: 24 h
[3] = tested on: thyroid hormone receptor (TR); test: TR-Luc reporter gene assay, antagonism (coexposure with 110 pM T3); type: cell-based; conditions: for TR antagonism % max combined: coexposure with 110 pM T3; for pIC50 / TR antagonism IC10: GH3.TRE cells, coexposed with 110 pM T3, 24 h
[4] = molecular target: T1, human transthyretin (TTR) (Homo sapiens, UniProt P02766); test: FITC-T4 TTR-binding assay, initial (original) method; conditions: for IC10 competing with FITC-T4 for binding to TTR: initial method, 110 nM FITC-T4, 30 nM TTR
Description: (§3) All incubations were performed at room temperature.
(§4) Fluorescence enhancement was determined for each well by subtracting its relative fluorescence units (RFU) before TTR addition from its RFUs after TTR addition. The resulting values were normalized to percentages of the vehicle control. A concentration–response curve was fitted through the data using the same model as in the reporter gene assays.
After 15 min of incubation, fluorescence was measured and fluorescence enhancement was calculated by subtracting RFU without TTR from RFU with TTR. Further data analysis was similar to the screening assays.

[5] = molecular target: T1, human transthyretin (TTR); test: FITC-T4 TTR-binding assay, screening method
Description: as §3
In the screening tests, 48 μl of Tris-HCl buffer (pH 8.0) was added to each well of black low-binding 96-well plates. Two microliters of each test compound dissolved in their respective solvent was added to each well and the plate was shaken at 600 rpm for 5 min. […] Fluorescence was measured again to check for possible autofluorescence or quenching by the test compound.
as §4

SMILES: FC(F)C(F)(F)OCC(Cn1cncn1)c1ccc(Cl)cc1Cl (stereo not drawn) [Tetraconazole]
- increased levels of progesterone and 17α-OH-progesterone compared with vehicle-treated controls [1]: up to 3.5 fold
- effect on steroid hormone levels compared with vehicle-treated controls [1]: increased levels of progesterone and decreased levels of androgens, estrogens, and corticosteroids
- cytotoxicity (GH3.TRE cells; rat, 24 h, 100 μM): More than 10%
- highest exposure concentration with <10% decrease in cell viability (H295R cells): 30 µM

SMILES: CC(C)(C)C(O)(CCc1ccc(Cl)cc1)Cn1cncn1 (stereo not drawn) [Tebuconazole]
- increased levels of progesterone and 17α-OH-progesterone compared with vehicle-treated controls [1]: up to 3.5 fold
- effect on steroid hormone levels compared with vehicle-treated controls [1]: increased levels of progesterone and decreased levels of androgens, estrogens, and corticosteroids
- cytotoxicity in the resazurine assay ([2]; 100 μM): significant cytotoxicity
- cytotoxicity (GH3.TRE cells; 100 μM): More than 10%
- highest exposure concentration with <10% decrease in cell viability (H295R cells): 30 µM

SMILES: N#CC(CCc1ccc(Cl)cc1)(Cn1cncn1)c1ccccc1 (stereo not drawn) [Fenbuconazole]
- effect on steroid hormone levels compared with vehicle-treated controls [1]: decreased levels of androgens, estrogens, and corticosteroids
- increased levels of 17α-OH-progesterone compared with vehicle-treated controls [1]: more than 8 fold
- decrease in viability (VM7Luc4E2 cells; 100 μM): more than 10%
- cytotoxicity in the resazurine assay ([2]; 100 μM): significant cytotoxicity
- cytotoxicity (GH3.TRE cells; 30 and 100 μM): More than 10%

SMILES: Nc1nc(N)[nH]c(=O)n1 [Ammeline]
- decrease in cell viability at highest exposure concentration (H295R cells): ≤ 10%

SMILES: CC1COC(Cn2cncn2)(c2ccc(Oc3ccc(Cl)cc3)cc2Cl)O1 (stereo not drawn) [Difenoconazole]
- TR antagonism % max combined ([3]; 0.3 uM): 100.42%
- TR antagonism % max combined ([3]; 1 uM): 84.26%
- TR antagonism % max combined ([3]; 3 uM): 56.28%
- TR antagonism % max combined ([3]; 10 uM): 27.83%
- pIC50 [3]: 5.39
- TR antagonism IC10 [3]: 0.64 µM
- pIC50 [4]: 4.41
- % FITCT4 bound to TTR ([4]; 0.1 uM): 94.3698%
- % FITCT4 bound to TTR ([4]; 0.3 uM): 86.9998%
- % FITCT4 bound to TTR ([4]; 1 uM): 84.4625%
- % FITCT4 bound to TTR ([4]; 3 uM): 79.4508%
- % FITCT4 bound to TTR ([4]; 10 uM): 60.3391%
- % FITCT4 bound to TTR ([4]; 30 uM): 47.2598%
- % FITCT4 bound to TTR ([4]; 100 uM): 44.9874%
- IC10 competing with FITC-T4 for binding to TTR [4]: 0.23 µM
- pIC50 [5]: 4.66
- effect on steroid hormone levels compared with vehicle-treated controls [1]: no effect on androgen levels, but showed decreased levels of corticosteroids
- increased levels of 17α-OH-progesterone compared with vehicle-treated controls [1]: more than 8 fold
- decrease in viability (VM7Luc4E2 cells; 30 and 100 μM): more than 10%
- cytotoxicity in the resazurine assay ([2]; 30 and 100 μM): significant cytotoxicity
- cytotoxicity (GH3.TRE cells; 30 and 100 μM): More than 10%
- highest exposure concentration with <10% decrease in cell viability (H295R cells): 3 µM

SMILES: CCCC1COC(Cn2cncn2)(c2ccc(Cl)cc2Cl)O1 (stereo not drawn) [Propiconazole]
- TR antagonism % max combined ([3]; 0.3 uM): 96.03%
- TR antagonism % max combined ([3]; 1 uM): 99.85%
- TR antagonism % max combined ([3]; 3 uM): 100.91%
- TR antagonism % max combined ([3]; 10 uM): 76.92%
- TR antagonism % max combined ([3]; 30 uM): 33.08%
- pIC50 [3]: 4.70
- TR antagonism IC10 [3]: 6.1 µM
- effect on steroid hormone levels compared with vehicle-treated controls [1]: no effect on androgen levels, but showed decreased levels of corticosteroids
- increased levels of 17α-OH-progesterone compared with vehicle-treated controls [1]: more than 8 fold
- cytotoxicity in the resazurine assay ([2]; 100 μM): significant cytotoxicity
- cytotoxicity (GH3.TRE cells; 100 μM): More than 10%

SMILES: CC(C1CC1)C(O)(Cn1cncn1)c1ccc(Cl)cc1 (stereo not drawn) [Cyproconazole]
- increased levels of progesterone and 17α-OH-progesterone compared with vehicle-treated controls [1]: up to 3.5 fold
- effect on steroid hormone levels compared with vehicle-treated controls [1]: increased levels of progesterone and decreased levels of androgens, estrogens, and corticosteroids
- cytotoxicity (GH3.TRE cells; rat, 24 h, 100 μM): More than 10%

SMILES: CC(C)(C)C(O)C(Oc1ccc(Cl)cc1)n1cncn1 (stereo not drawn) [Triadimenol]
- TR antagonism % max combined ([3]; 0.3 uM): 102.48%
- TR antagonism % max combined ([3]; 1 uM): 98.41%
- TR antagonism % max combined ([3]; 3 uM): 105.58%
- TR antagonism % max combined ([3]; 10 uM): 76.69%
- TR antagonism % max combined ([3]; 30 uM): 36.13%
- pIC50 [3]: 4.67
- TR antagonism IC10 [3]: 6.3 µM
- effect on steroid hormone levels compared with vehicle-treated controls [1]: decreased estrogen and corticosteroid levels
- cytotoxicity (GH3.TRE cells; rat, 24 h, 100 μM): More than 10%

SMILES: CC(C)(C)C(O)C(Oc1ccc(-c2ccccc2)cc1)n1cncn1 (stereo not drawn) [Bitertanol]
- pIC50 [4]: 4.20
- % FITCT4 bound to TTR ([4]; 0.1 uM): 93.4196%
- % FITCT4 bound to TTR ([4]; 0.3 uM): 88.4453%
- % FITCT4 bound to TTR ([4]; 1 uM): 84.7037%
- % FITCT4 bound to TTR ([4]; 3 uM): 79.29%
- % FITCT4 bound to TTR ([4]; 10 uM): 64.391%
- % FITCT4 bound to TTR ([4]; 30 uM): 52.4704%
- % FITCT4 bound to TTR ([4]; 100 uM): 49.6904%
- IC10 competing with FITC-T4 for binding to TTR [4]: 0.22 µM
- pIC50 [5]: 4.69
- effect on steroid hormone levels compared with vehicle-treated controls [1]: decreased levels of androgens
- decrease in viability (VM7Luc4E2 cells; 100 μM): more than 10%
- cytotoxicity in the resazurine assay ([2]; 100 μM): significant cytotoxicity
- cytotoxicity (GH3.TRE cells; 100 μM): More than 10%

SMILES: NC(Cn1cncn1)C(=O)O (stereo not drawn) [Triazole alanine]
- decrease in cell viability at highest exposure concentration (H295R cells): ≤ 10%

— paper PMC11589101, “Profiling the endocrine-disrupting properties of triazines, triazoles, and short-chain PFAS” (Toxicological Sciences, 2024)
